# Experimental data taken from the Kinase Knowledgebase extract (Sharma et al. 2016).
# Several values for one entry are separate records, joined by “and”; a condition that tells them apart may be missing. Identical values can stand only once.
# Target: CDK2 (human) (UniProt P24941)
# Assay: Enzyme Assay
# Conditions: not given
row,IC50,Compound
1,4000 nM and 11000 nM,CC(C)n1cnc2c(NCc3ccc(-c4ccccc4)cc3)nc(NC[C@H](C)NC(=O)OC(C)(C)C)nc21
2,200 nM and 60 nM,CN1CC[C@@H](c2c(O)cc(O)c3c(=O)cc(C4CCCCC4Cl)oc23)[C@@H](O)C1 (stereo partly specified)
3,1000 nM,CCn1cnc2c(NCc3ccc(Cl)cc3)nc(N[C@H]3CCCC[C@H]3N)nc21

# Target: CDK2 (human) (UniProt P24941)
# Assay: Enzyme Assay
# Conditions: not given
# Remark: another data set of the same source
row,IC50,Compound
1,3000 nM and 1000 nM,CC(C)n1cnc2c(NCc3ccc(-c4ccccc4)cc3)nc(NC[C@H](C)NC(=O)OC(C)(C)C)nc21
2,100 nM,CCn1cnc2c(NCc3ccc(Cl)cc3)nc(N[C@H]3CCCC[C@H]3N)nc21

# Target: CDK2;CDK1 (human) (UniProt P24941)
# Assay: Cell-Based Assay
# Conditions: hela-s3
row,Compound,GI50
1,COC(=O)N[C@H]1CC[C@H](Nc2nc(NCc3ccc(-c4ccccc4)cc3)c3ncn(C(C)C)c3n2)CC1,700 nM and 400 nM and 300 nM
2,CC(C)n1cnc2c(NCc3ccc(-c4ccccc4)cc3)nc(N[C@H]3CC[C@H](N(CC4CC4)CC4CC4)CC3)nc21,30 nM
3,CC(C)n1cnc2c(NCc3ccc(-c4ccccc4)cc3)nc(NCCN)nc21,200 nM and 400 nM
4,CC(C)n1cnc2c(NCc3ccc(-c4ccccc4)cc3)nc(NC[C@H](C)NC(=O)OC(C)(C)C)nc21,300 nM and 100 nM
5,CC(C)n1cnc2c(NCc3ccc(-c4ccccc4)cc3)nc(N[C@H]3CC[C@H](NCC4CC4)CC3)nc21,300 nM
6,CC(C)n1cnc2c(NCc3ccc(-c4ccccc4)cc3)nc(N[C@H]3CC[C@H](N4C(=O)CCC4=O)CC3)nc21,300 nM and 200 nM and 500 nM
7,CC(C)n1cnc2c(NCc3ccc(-c4ccccc4)cc3)nc(NCCCN)nc21,300 nM and 600 nM
8,CC(C)n1cnc2c(NCc3ccc(-c4ccccc4)cc3)nc(N[C@H]3CC[C@H](NS(C)(=O)=O)CC3)nc21,200 nM and 100 nM
9,CC(C)n1cnc2c(NCc3ccc(-c4ccccc4)cc3)nc(N3CCC(C(N)=O)CC3)nc21,5000 nM and 3000 nM
10,CCN(C(C)=O)[C@H]1CC[C@H](Nc2nc(NCc3ccc(-c4ccccc4)cc3)c3ncn(C(C)C)c3n2)CC1,600 nM and 800 nM
11,CC(=O)NCCNc1nc(NCc2ccc(-c3ccccc3)cc2)c2ncn(C(C)C)c2n1,3000 nM and 4000 nM
12,CC(C)n1cnc2c(NCCc3ccc(-c4ccsc4)cc3)nc(N[C@H]3CC[C@H](NC(=O)OC(C)(C)C)CC3)nc21,> 10000 nM and 7000 nM
13,CCN[C@H]1CC[C@H](Nc2nc(NCc3ccc(-c4ccccc4)cc3)c3ncn(C(C)C)c3n2)CC1,2000 nM and 900 nM
14,CCn1cnc2c(NCc3ccc(Cl)cc3)nc(N[C@H]3CCCC[C@H]3N)nc21,3000 nM
15,CC(=O)N[C@H]1CC[C@H](Nc2nc(NCc3ccc(-c4cccc(C)c4)cc3)c3ncn(C(C)C)c3n2)CC1,400 nM and 200 nM
16,CC(C)n1cnc2c(NCc3ccc(-c4ccccc4)cc3)nc(N[C@H]3CC[C@H](NS(=O)(=O)C(F)(F)F)CC3)nc21,3000 nM and 2000 nM and 4000 nM
17,CCCCN[C@H]1CC[C@H](Nc2nc(NCc3ccc(-c4ccccc4)cc3)c3ncn(C(C)C)c3n2)CC1,500 nM and 300 nM
18,CCC(=O)N[C@H]1CC[C@H](Nc2nc(NCc3ccc(-c4ccccc4)cc3)c3ncn(C(C)C)c3n2)CC1,200 nM and 400 nM and 300 nM
19,CC(C)n1cnc2c(NCc3ccc(-c4ccccc4)cc3)nc(N[C@H]3CC[C@H](NC(=O)C4CC4)CC3)nc21,300 nM
20,COc1cccc(-c2ccc(CNc3nc(N[C@H]4CC[C@H](NC(C)=O)CC4)nc4c3ncn4C(C)C)cc2)c1,300 nM and 400 nM
21,CC(C)n1cnc2c(NCc3ccc(-c4ccccc4)cc3)nc(N3CCC(N)C3)nc21 (stereo unspecified),500 nM
